Results reported in patent US10125134B2 (Mirati Therapeutics, Inc., priority 2016, dated 2018).
Where two headings read alike, the source gives them in different places.

Columns and labels:
[1] = tested on: NCI-H358 cells (express KRas G12C), Phospho-ERK; assay: Cellular inhibition of KRas G12C: Phospho-ERK in NCI-H358 cells; format: cell-based; conditions: Homo sapiens, pERK(Thr202/Tyr204) normalized with GAPDH, NCI-H358 cells, 3 hours, read-out: IC50
Procedure, shortened: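 IC50 derived by 4-parameter fit of GAPDH-normalized pERK(Thr202/Tyr204) signal, as percent of DMSO control. Signal came from in-cell immunodetection with infrared secondaries after 3 h compound exposure of KRas G12C NCI-H358 cells at 0.5% DMSO.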

KRas G12C = KRas G12C (Homo sapiens, UniProt P01116, C118S/C51S/C80L/G12C); assay: KRas G12C Modification Assay (LCMS detection of covalent adduct); format: binding; conditions: normalized percent of control; tested at 5 μM concentration for 3 hours
Procedure, shortened: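 Covalent modification was read by reverse-phase LC/MS of intact protein after compound exposure, each reaction stopped at its time point with 25 mM acetic acid. Unmodified-protein signal, taken as percent of total, was normalised to untreated protein and reported as POC.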

| SMILES | POC (KRas G12C) | IC50 ([1]; NCI-H358, 3 h) | IC50 [1] |
| --- | --- | --- | --- |
| C=CC(=O)N1CCN(c2nc(O[C@H](C)CN(C)C)nc3c2CCN(c2cc(O)cc(Cl)c2C(C)C)C3)CC1 [Example 76, (R)-1-(4-(7-(3-chloro-5-hydroxy-2-isopropylphenyl)-2-((1-(dimethylamino)propan-2-yl)oxy)-5,6,7,8-tetrahydropyrido[3,4-d]pyrimidin-4-yl)piperazin-1-yl)prop-2-en-1-one] | C (“C”>50% POC) | – | > 1000 nM |
| C=CC(=O)N1CCN(c2nc(OCCN3C[C@@H]4CC[C@H]3C4)nc3c2CCN(c2cc(O)cc4ccccc24)C3)CC1 [Example 77, 1-(4-(2-(2-((1 S,4R)-2-azabicyclo[2.2.1]heptan-2-yl)ethoxy)-7-(3-hydroxynaphthalen-1-yl)-5,6,7,8-tetrahydropyrido[3,4-d]pyrimidin-4-yl)piperazin-1-yl)prop-2-en-1-one] | C (“C”>50% POC) | 0.1 to 1000 nM | – |
| C=CC(=O)N1CCN(c2nc(OCCN3CCC(C#N)CC3)nc3c2CCN(c2cc(O)cc4ccccc24)C3)CC1 [Example 81, 1-(2-((4-(4-acryloylpiperazin-1-yl)-7-(3-hydroxynaphthalen-1-yl)-5,6,7,8-tetrahydropyrido[3,4-d]pyrimidin-2-yl)oxy)ethyl)piperidine-4-carbonitrile] | C (“C”>50% POC) | > 1000 nM | – |
| C=CC(=O)N1CCN(c2nc(OCCN(C)CCO)nc3c2CCN(c2cc(O)cc4ccccc24)C3)CC1 [Example 83, 1-(4-(2-(2-((2-hydroxyethyl)(methyl)amino)ethoxy)-7-(3-hydroxynaphthalen-1-yl)-5,6,7,8-tetrahydropyrido[3,4-d]pyrimidin-4-yl)piperazin-1-yl)prop-2-en-1-one] | C (“C”>50% POC) | > 1000 nM | – |
| C=CC(=O)N1CCN(c2nc(O[C@H](C)CN(C)C)nc3c2CCN(c2c(O)ccc(C)c2F)C3)CC1 [Example 84, (R)-1-(4-(2-((1-(dimethylamino)propan-2-yl)oxy)-7-(2-fluoro-6-hydroxy-3-methylphenyl)-5,6,7,8-tetrahydropyrido[3,4-d]pyrimidin-4-yl)piperazin-1-yl)prop-2-en-1-one] | A (“A”≤25% POC) | – | > 1000 nM |
| C=CC(=O)N1CCN(c2nc(OCCN3CCCC3)nc3c2CCN(c2cc(O)cc4ccccc24)C3)CC1 [Example 85, 1-(4-(7-(3-hydroxynaphthalen-1-yl)-2-(2-(pyrrolidin-1-yl)ethoxy)-5,6,7,8-tetrahydropyrido[3,4-d]pyrimidin-4-yl)piperazin-1-yl)prop-2-en-1-one] | C (“C”>50% POC) | > 1000 nM | – |
| C=CC(=O)N1CCN(c2nc(O[C@H](C)CN(C)C)nc3c2CCN(c2cc(OC(F)(F)F)ccc2O)C3)CC1 [Example 86, (R)-1-(4-(2-((1-(dimethylamino)propan-2-yl)oxy)-7-(2-hydroxy-5-(trifluoromethoxy)phenyl)-5,6,7,8-tetrahydropyrido[3,4-d]pyrimidin-4-yl)piperazin-1-yl)prop-2-en-1-one] | A (“A”≤25% POC) | – | > 1000 nM |
| C=CC(=O)N1CCN(c2nc(O[C@H](C)CN(C)C)nc3c2CCN(c2c(C)ccc(F)c2O)C3)CC1 [Example 87, (R)-1-(4-(2-((1-(dimethylamino)propan-2-yl)oxy)-7-(3-fluoro-2-hydroxy-6-methylphenyl)-5,6,7,8-tetrahydropyrido[3,4-d]pyrimidin-4-yl)piperazin-1-yl)prop-2-en-1-one] | A (“A”≤25% POC) | – | > 1000 nM |
| C=CC(=O)N1CCN(c2nc(OCC3CCN(C)C3)nc3c2CCN(c2cc(O)cc4ccccc24)C3)CC1 (stereo not drawn) [Example 89, 1-(4-(7-(3-hydroxynaphthalen-1-yl)-2-((l-methylpyrrolidin-3-yl)methoxy)-5,6,7,8-tetrahydropyrido[3,4-d]pyrimidin-4-yl)piperazin-1-yl)prop-2-en-1-one] | C (“C”>50% POC) | 0.1 to 1000 nM | – |
| C=CC(=O)N1CCN(c2nc(OC(C)CCN3CCOCC3)nc3c2CCN(c2cc(O)cc4ccccc24)C3)CC1 (centres unmarked) [Example 93, 1-(4-(7-(3-hydroxynaphthalen-1-yl)-2-((4-morpholinobutan-2-yl)oxy)-5,6,7,8-tetrahydropyrido[3,4-d]pyrimidin-4-yl)piperazin-1-yl)prop-2-en-1-one] | C (“C”>50% POC) | > 1000 nM | – |
| C=CC(=O)N1CCN(c2nc(O[C@H](C)CN(C)C)nc3c2CCN(c2cc(O)ccc2OC)C3)CC1 [Example 94, (R)-1-(4-(2-((1-(dimethylamino)propan-2-yl)oxy)-7-(5-hydroxy-2-methoxyphenyl)-5,6,7,8-tetrahydropyrido[3,4-d]pyrimidin-4-yl)piperazin-1-yl)prop-2-en-1-one] | A (“A”≤25% POC) | – | > 1000 nM |
| C=CC(=O)N1CCN(c2nc(OCCCN3CCOCC3)nc3c2CCN(c2cc(O)ccc2OC(C)C)C3)CC1 [Example 96, 1-(4-(7-(5-hydroxy-2-isopropoxyphenyl)-2-(3-morpholinopropoxy)-5,6,7,8-tetrahydropyrido[3,4-d]pyrimidin-4-yl)piperazin-1-yl)prop-2-en-1-one] | A (“A”≤25% POC) | – | > 1000 nM |

Now from value to compound, other results behind:

| POC (KRas G12C) | SMILES | IC50 ([1]; NCI-H358, 3 h) | IC50 [1] |
| --- | --- | --- | --- |
| C (“C”>50% POC) | C=CC(=O)N1CCN(c2nc(O[C@H](C)CN3CCCCC3)nc3c2CCN(c2cc(O)cc4ccccc24)C3)CC1 [Example 75, (R)-1-(4-(7-(3-hydroxynaphthalen-1-yl)-2-((1-(piperidin-1-yl)propan-2-yl)oxy)-5,6,7,8-tetrahydropyrido[3,4-d]pyrimidin-4-yl)piperazin-1-yl)prop-2-en-1-one] | 0.1 to 1000 nM | – |
| C (“C”>50% POC) | C=CC(=O)N1CCN(c2nc(O[C@H](C)CN(C)C)nc3c2CCN(c2cc(O)ccc2OC(F)(F)F)C3)CC1 [Example 78, (R)-1-(4-(2-((1-(dimethylamino)propan-2-yl)oxy)-7-(5-hydroxy-2-(trifluoromethoxy)phenyl)-5,6,7,8-tetrahydropyrido[3,4-d]pyrimidin-4-yl)piperazin-1-yl)prop-2-en-1-one] | – | > 1000 nM |
| A (“A”≤25% POC) | C=CC(=O)N1CCN(c2nc(O[C@H](C)CN(C)C)nc3c2CCN(c2cc(O)ccc2C(F)(F)F)C3)CC1 [Example 79, (R)-1-(4-(2-((1-(dimethylamino)propan-2-yl)oxy)-7-(5-hydroxy-2-(trifluoromethyl)phenyl)-5,6,7,8-tetrahydropyrido[3,4-d]pyrimidin-4-yl)piperazin-1-yl)prop-2-en-1-one] | – | > 1000 nM |
| C (“C”>50% POC) | C=CC(=O)N1CCN(c2nc(OCC3CN(C)CCN3)nc3c2CCN(c2cc(O)cc4ccccc24)C3)CC1 (centres unmarked) [Example 80, 1-(4-(7-(3-hydroxynaphthalen-1-yl)-2-((4-methylpiperazin-2-yl)methoxy)-5,6,7,8-tetrahydropyrido[3,4-d]pyrimidin-4-yl)piperazin-1-yl)prop-2-en-1-one] | > 1000 nM | – |
| C (“C”>50% POC) | C=CC(=O)N1CCN(c2nc(OCCCN3CCN(C)CC3)nc3c2CCN(c2cc(O)cc4ccccc24)C3)CC1 [Example 82, 1-(4-(7-(3-hydroxynaphthalen-1-yl)-2-(3-(4-methylpiperazin-1-yl)propoxy)-5,6,7,8-tetrahydropyrido[3,4-d]pyrimidin-4-yl)piperazin-1-yl)prop-2-en-1-one] | 0.1 to 1000 nM | – |
| C (“C”>50% POC) | C=CC(=O)N1CCN(c2nc(OCCN3CCCC[C@@H]3C)nc3c2CCN(c2cc(O)cc4ccccc24)C3)CC1 [Example 88, (S)-1-(4-(7-(3-hydroxynaphthalen-1-yl)-2-(2-(2-methylpiperidin-1-yl)ethoxy)-5,6,7,8-tetrahydropyrido[3,4-d]pyrimidin-4-yl)piperazin-1-yl)prop-2-en-1-one] | 0.1 to 1000 nM | – |
| C (“C”>50% POC) | C=CC(=O)N1CCN(c2nc(OCCCN3CCOCC3)nc3c2CCN(c2cc(O)ccc2OC(F)(F)F)C3)CC1 [Example 90, 1-(4-(7-(5-hydroxy-2-(trifluoromethoxy)phenyl)-2-(3-morpholinopropoxy)-5,6,7,8-tetrahydropyrido[3,4-d]pyrimidin-4-yl)piperazin-1-yl)prop-2-en-1-one] | – | 0.1 to 1000 nM |
| A (“A”≤25% POC) | C=CC(=O)N1CCN(c2nc(O[C@H](C)CN(C)C)nc3c2CCN(c2cc(O)cc(OC(F)(F)F)c2)C3)CC1 [Example 91, (R)-1-(4-(2-((1-(dimethylamino)propan-2-yl)oxy)-7-(3-hydroxy-5-(trifluoromethoxy)phenyl)-5,6,7,8-tetrahydropyrido[3,4-d]pyrimidin-4-yl)piperazin-1-yl)prop-2-en-1-one] | – | > 1000 nM |
| C (“C”>50% POC) | C=CC(=O)N1CCN(c2nc(OCCN3CCC(C)CC3)nc3c2CCN(c2cc(O)cc4ccccc24)C3)CC1 [Example 92, 1-(4-(7-(3-hydroxynaphthalen-1-yl)-2-(2-(4-methylpiperidin-1-yl)ethoxy)-5,6,7,8-tetrahydropyrido[3,4-d]pyrimidin-4-yl)piperazin-1-yl)prop-2-en-1-one] | 0.1 to 1000 nM | – |
| A (“A”≤25% POC) | C=CC(=O)N1CCN(c2nc(O[C@H](C)CN(C)C)nc3c2CCN(c2c(C)cccc2O)C3)CC1 [Example 95, (R)-1-(4-(2-((1-(dimethylamino)propan-2-yl)oxy)-7-(2-hydroxy-6-methylphenyl)-5,6,7,8-tetrahydropyrido[3,4-d]pyrimidin-4-yl)piperazin-1-yl)prop-2-en-1-one] | – | > 1000 nM |
